Among the data in US20240083892A1 (BISICHEM CO., LTD., priority 2021, published 2024) are IC50 values, retold here.

Assay [1] concerns the target T1, RIPK1 (Homo sapiens, UniProt Q13546).
T1 construct: endogenous in cells; host or cells: HT-29 (KCLB 30038)
T1 sequence (Q13546 1-671): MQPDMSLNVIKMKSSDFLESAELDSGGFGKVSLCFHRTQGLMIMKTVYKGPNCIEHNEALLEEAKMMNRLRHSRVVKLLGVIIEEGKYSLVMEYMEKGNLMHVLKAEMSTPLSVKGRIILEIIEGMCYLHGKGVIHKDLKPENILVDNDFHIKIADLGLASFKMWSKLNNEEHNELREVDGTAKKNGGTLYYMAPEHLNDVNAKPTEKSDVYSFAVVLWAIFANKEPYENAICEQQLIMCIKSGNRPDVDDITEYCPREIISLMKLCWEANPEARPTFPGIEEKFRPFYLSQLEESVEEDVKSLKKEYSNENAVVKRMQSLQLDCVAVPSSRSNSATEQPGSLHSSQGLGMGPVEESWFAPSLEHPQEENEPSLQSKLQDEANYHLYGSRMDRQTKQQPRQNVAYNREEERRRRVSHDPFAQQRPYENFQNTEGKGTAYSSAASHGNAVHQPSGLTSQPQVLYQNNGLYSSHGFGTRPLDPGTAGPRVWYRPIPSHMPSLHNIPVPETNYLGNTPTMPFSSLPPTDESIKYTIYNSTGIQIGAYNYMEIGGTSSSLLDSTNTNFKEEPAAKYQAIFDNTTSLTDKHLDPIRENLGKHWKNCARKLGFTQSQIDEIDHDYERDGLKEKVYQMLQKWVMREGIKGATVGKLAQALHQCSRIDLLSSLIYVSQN
The assay can be described thus: Cell-based necroptosis assay for RIPK1 activity (cell viability by CCK-8). Conditions: HT-29 cells; Z-VAD-FMK 20 μM, human TNFα 10 ng/ml, SM-164 100 nM; 24 h; read-out: Cell-base RIPK1 activity: Necroptosis. How it is done: (§1) Human colon carcinoma cell HT-29 (KCLB 30038), BV2 mouse microglial cell (cell was a kind gift from Dr. Nak-Yun Sung, Senior researcher at Korea Prime Pharmacy CO., LTD.) and human microglial cell HMC3 (ATCC® CRL-3304™). HT-29 cell was grown in Roswell Park Memorial Institute (RPMI) 1640, BV2 cell was grown in Dulbecco's Modified Eagle's Medium (DMEM) and HMC3 cell was grown in Minimum Essential Media Eagle (MEM) supplemented with 10% fetal bovine serum and 1% mixture of penicillin and streptomycin (Gibco). Cells were maintained at 37° C. in a humidified 5% CO2 atmosphere.
To measure the activity of RIPK1 inhibitor in necroptotic cells, HT-29 cells were treated by control DMSO, human TNFα (Peprotech, Rocky Hill, USA), SM-164 (Biovision, California, USA) and a pan-caspase inhibitor Z-VAD-FMK (Invivogen, San Diego, USA). Cells were pretreated with Z-VAD-FMK 20 μM. After 30 min, human TNFα 10 ng/ml, SM-164 100 nM and RIPK1 Inhibitor (0.0001, 0.001, 0.01, 0.02, 0.05, 0.1, 1, 10 uM) were treated for 24 h. Cell viability was measured by Cell Counting Kit 8 (CCK-8) (Dong-in, Seoul, Korea).

Assay [2] deals with T1, RIPK1. The assay can be described thus: Immunoblotting of TNFα induced phospho-RIPK1 (ser 166) levels. The class given is cell-based. Conditions: HMC3 cells; Z-VAD-FMK, human TNFα 20 ng/ml, SM-164 100 nM; 7 h, serum free media; read-out: Cell-base RIPK1 activity: phspho-RIPK1 (Ser166). How it is done: as §1
Biological activity of the compounds of RIPK1 inhibitor was determined by measuring their ability to inhibitor TNFα induced phospho-RIPK1 (ser 166) levels, phospho-RIPK3 levels, phospho-MLKL levels in HMC3 cells. Cells were pretreated with Z-VAD-FMK […]. After 30 min, human TNFα 20 ng/ml, SM-164 100 nM and RIPK1 inhibitor (0.1, 1, 10 nM) were treated for 7 h under serum free media. Cells were lysed with cold lysis buffer containing 25 mM HEPES pH 7.6, […] NaCl, 1% NP40, 1% sodium deoxycholate, 0.1% SDS, and protease inhibitor mixture (Bimake, Houston, USA) using sonicators. The cells were centrifuged at 15,000 rpm, 4° C. for 5 min. After protein concentration of the lysates (supernatants) was quantified using BCA assay (Thermo Fisher Scientific, Waltham, USA), lysates were mixed with LDS sample buffer and heating at […] for 10 min. (Invitrogen, California, USA). […] The membranes are placed in an image analyzer (Imagequant, LAS 500, GE Healthcare), connected to a computer which allows the image generation (software Image reader LAS 500).

The structures appear in SMILES notation. Some results are limits rather than exact numbers.

In the case of `CC(C)CCCOc1ccc2c(c1)N(C)C(=O)[C@@H](NC(=O)n1cc(Cc3cccc(F)c3)cn1)CO2` [Example 15, (S)-4-(3-fluorobenzyl)-N-(5-methyl-7-((4-methylpentyl)oxy)-4-oxo-2,3,4,5-tetrahydrobenzo[b][1,4]oxazepin-3-yl)-1H-pyrazole-1-carboxamide], the IC50 in assay [1] and in assay [2] was < 0.01 µM in each case.

On to `CN1C(=O)[C@@H](NC(=O)n2cc(Cc3cccc(F)c3)cn2)COc2ccc(OCCCC3CCCCC3)cc21` [Example 16, (S)—N-(7-(3-cyclohexylpropoxy)-5-methyl-4-oxo-2,3,4,5-tetrahydrobenzo[b][1,4]oxazepin-3-yl)-4-(3-fluorobenzyl)-1H-pyrazole-1-carboxamide], for which the IC50 in assay [1] and in assay [2] was < 0.01 µM each time.

Turning to `CN1C(=O)[C@@H](NC(=O)n2cc(Cc3cccc(F)c3)cn2)COc2ccc(OCCN3CCC(C)(O)CC3)cc21` [Example 18, (S)-4-(3-fluorobenzyl)-N-(7-(2-(4-hydroxy-4-methylpiperidin-1-yl)ethoxy)-5-methyl-4-oxo-2,3,4,5-tetrahydrobenzo[b][1,4]oxazepin-3-yl)-1H-pyrazole-1-carboxamide], the IC50 in assay [1] and in assay [2] was < 0.01 µM throughout.

Take `CN1C(=O)[C@@H](NC(=O)n2cc(Cc3cccc(F)c3)cn2)COc2ccc(OCCOCCO)cc21` [Example 19, (S)-4-(3-fluorobenzyl)-N-(7-(2-(2-hydroxyethoxy)ethoxy)-5-methyl-4-oxo-2,3,4,5-tetrahydrobenzo[b][1,4]oxazepin-3-yl)-1H-pyrazole-1-carboxamide]: the IC50 in assay [1] and in assay [2] was < 0.01 µM each time.

On to `CN1C(=O)[C@@H](NC(=O)n2cc(Cc3cccc(F)c3)cn2)COc2ccc(OCC(C)(C)O)cc21` [Example 20, (S)-4-(3-fluorobenzyl)-N-(7-(2-hydroxy-2-methylpropoxy)-5-methyl-4-oxo-2,3,4,5-tetrahydrobenzo[b][1,4]oxazepin-3-yl)-1H-pyrazole-1-carboxamide], for which the IC50 in assay [1] and in assay [2] was < 0.01 µM in each case.

For the compound `CN1C(=O)[C@@H](NC(=O)n2cc(Cc3cccc(F)c3)cn2)COc2ccc(OCCC(C)(C)O)cc21` [Example 21, (S)-4-(3-fluorobenzyl)-N-(7-(3-hydroxy-3-methylbutoxy)-5-methyl-4-oxo-2,3,4,5-tetrahydrobenzo[b][1,4]oxazepin-3-yl)-1H-pyrazole-1-carboxamide], the IC50 in assay [1] and in assay [2] was < 0.01 µM in each case.

With `CN1C(=O)[C@@H](NC(=O)n2cc(Cc3cccc(F)c3)cn2)COc2ccc(OCC#CC(C)(C)O)cc21` [Example 22, (S)-4-(3-fluorobenzyl)-N-(7-((4-hydroxy-4-methylpent-2-yn-1-yl)oxy)-5-methyl-4-oxo-2,3,4,5-tetrahydrobenzo[b][1,4]oxazepin-3-yl)-1H-pyrazole-1-carboxamide], the IC50 in assay [1] and in assay [2] was < 0.01 µM each time.

`CN1C(=O)[C@@H](NC(=O)n2cc(Cc3cccc(F)c3)cn2)COc2ccc(OCC#CC3(O)CCCCC3)cc21` [Example 23, (S)-4-(3-fluorobenzyl)-N-(7-((3-(1-hydroxycyclohexyl)prop-2-yn-1-yl)oxy)-5-methyl-4-oxo-2,3,4,5-tetrahydrobenzo[b][1,4]oxazepin-3-yl)-1H-pyrazole-1-carboxamide]: the IC50 in assay [1] and in assay [2] was < 0.01 µM each time.

As for `CN1C(=O)[C@@H](NC(=O)n2cc(Cc3cccc(F)c3)cn2)COc2ccc(OCC#CC3(O)CCC3)cc21` [Example 24, (S)-4-(3-fluorobenzyl)-N-(7-((3-(1-hydroxycyclobutyl)prop-2-yn-1-yl)oxy)-5-methyl-4-oxo-2,3,4,5-tetrahydrobenzo[b][1,4]oxazepin-3-yl)-1H-pyrazole-1-carboxamide], the IC50 in assay [1] and in assay [2] was < 0.01 µM throughout.

With `CN1C(=O)[C@@H](NC(=O)n2cc(Cc3cccc(F)c3)cn2)COc2ccc(OCC#Cc3cccnc3)cc21` [Example 25, (S)-4-(3-fluorobenzyl)-N-(5-methyl-4-oxo-7-((3-(pyridin-3-yl)prop-2-yn-1-yl)oxy)-2,3,4,5-tetrahydrobenzo[b][1,4]oxazepin-3-yl)-1H-pyrazole-1-carboxamide], the IC50 in assay [1] and in assay [2] was < 0.01 µM throughout.

Turning to `CN1C(=O)[C@@H](NC(=O)n2cc(Cc3cccc(F)c3)cn2)COc2ccc(OCCCC(C)(C)O)cc21` [Example 26, (S)-4-(3-fluorobenzyl)-N-(7-((4-hydroxy-4-methylpentyl)oxy)-5-methyl-4-oxo-2,3,4,5-tetrahydrobenzo[b][1,4]oxazepin-3-yl)-1H-pyrazole-1-carboxamide], the IC50 in assay [1] and in assay [2] was < 0.01 µM throughout.

For the compound `CN1C(=O)[C@@H](NC(=O)n2cc(Cc3cccc(F)c3)cn2)COc2ccc(OCCCC3(O)CCCCC3)cc21` [Example 27, (S)-4-(3-fluorobenzyl)-N-(7-(3-(1-hydroxycyclohexyl)propoxy)-5-methyl-4-oxo-2,3,4,5-tetrahydrobenzo[b][1,4]oxazepin-3-yl)-1H-pyrazole-1-carboxamide], the IC50 in assay [1] and in assay [2] was < 0.01 µM each time.

With `CN1C(=O)[C@@H](NC(=O)n2cc(Cc3cccc(F)c3)cn2)COc2ccc(OCCCC3(O)CCC3)cc21` [Example 28, (S)-4-(3-fluorobenzyl)-N-(7-(3-(1-hydroxycyclobutyl)propoxy)-5-methyl-4-oxo-2,3,4,5-tetrahydrobenzo[b][1,4]oxazepin-3-yl)-1H-pyrazole-1-carboxamide], the IC50 in assay [1] and in assay [2] was < 0.01 µM in each case.

For `CN1C(=O)[C@@H](NC(=O)n2cc(Cc3cccc(F)c3)cn2)COc2ccc(OCCCc3cccnc3)cc21` [Example 29, (S)-4-(3-fluorobenzyl)-N-(5-methyl-4-oxo-7-(3-(pyridin-3-yl)propoxy)-2,3,4,5-tetrahydrobenzo[b][1,4]oxazepin-3-yl)-1H-pyrazole-1-carboxamide], the IC50 in assay [1] and in assay [2] was < 0.01 µM in each case.

For `CN1C(=O)[C@@H](NC(=O)n2cc(Cc3cccc(F)c3)cn2)COc2ccc(OC3CCCCC3)cc21` [Example 30, (S)—N-(7-(cyclohexyloxy)-5-methyl-4-oxo-2,3,4,5-tetrahydrobenzo[b][1,4]oxazepin-3-yl)-4-(3-fluorobenzyl)-1H-pyrazole-1-carboxamide], the IC50 in assay [1] and in assay [2] was < 0.01 µM throughout.

As to `CN1C(=O)[C@@H](NC(=O)n2cc(Cc3cccc(F)c3)cn2)COc2ccc(OC3CCC(C)(C)CC3)cc21` [Example 31, (S)—N-(7-((4,4-dimethylcyclohexyl)oxy)-5-methyl-4-oxo-2,3,4,5-tetrahydrobenzo[b][1,4]oxazepin-3-yl)-4-(3-fluorobenzyl)-1H-pyrazole-1-carboxamide], the IC50 in assay [1] and in assay [2] was < 0.01 µM in each case.

Regarding `CN1C(=O)[C@@H](NC(=O)n2cc(Cc3cccc(F)c3)cn2)COc2ccc(O[C@H]3CC[C@@H](O)CC3)cc21` [Example 34, 4-(3-fluorobenzyl)-N—((S)-7-(((1s,4R)-4-hydroxycyclohexyl)oxy)-5-methyl-4-oxo-2,3,4,5-tetrahydrobenzo[b][1,4]oxazepin-3-yl)-1H-pyrazole-1-carboxamide], the IC50 in assay [1] and in assay [2] was < 0.01 µM in each case.
